According to patent publication US4111945A, “Process for the preparation of 3,4,5-trimethoxy-phenyl-(1,4-dimethyl-1,2,3,6-tetrahydro-2-pyridyl)-carb inol” (Laboratories Made, S.A., priority 1976, dated 1978):

How the values were obtained:
Type in all cases: in vivo
Swiss ICR albino mice [1] = assay: Thermal analgesia, hot-plate technique at 55° C.; settings: for Jumping time (mean ± S.E.M.): 30 mg/kg, intraperitoneal, 30 minutes, hot-plate 55° C., control 50.1 ± 3.16
Procedure: The thermal analgesia effect was studied in Swiss ICR albino mice. The hot-plate technique at 55° C. was used. The […] were divided into batches of 10.
The products being studied were administered intraperitoneally and after 30 minutes the animals were placed on the hot-plate, the time in seconds being counted until the animals started to jump. Batches of control animals which had received injections of distilled water only were used.

[2] = Acute toxicity, intraperitoneal (Litchfield-Wilcoxon); settings: mouse, in vivo, ip, Swiss ICR mice of both sexes, 25 ± 2 g, read-out: Lethal Dose 50 (LD50)
Procedure: (§1) Acute toxicity studies were made in Swiss ICR mice of both sexes weighing 25 ± 2 g. The products were administered intraperitoneally. Acute toxicity calculations were made by the Litchfield-Wilcoxon method.

Swiss ICR albino mice [3] = assay: Chemical analgesia, acetic acid writhing technique
Procedure: The analgesic effect was studied in Swiss ICR albino mice using the acetic acid writhing technique. The animals were divided into batches of 10.
The products studied were administered intraperitoneally and after 30 minutes 0.25 ml of 1% acetic acid was injected intraperitoneally. A batch of control animals was given only the acetic acid. The number of writhings made by each mouse in the 20 minutes after the administration of the acetic acid was counted.

Swiss ICR mice = assay: Acute toxicity, intraperitoneal (Litchfield-Wilcoxon); settings: Swiss ICR mice of both sexes, 25 ± 2 g
Procedure: as §1

COc1cc(C(O)C2CC(C)=CCN2C)cc(OC)c1OC (stereo not shown) [Product VIII, 3,4,5-trimethoxyphenyl-(1,4-dimethyl-1,2,3,6-tetrahydro-2-pyridyl)-carbinol]
Jumping time (mean ± S.E.M.) (Swiss ICR albino mice [1]): 51.8 ± 5.46 s
thermal analgesic activity (Swiss ICR albino mice [1]; conclusion in words): lacks thermal analgesic activity
LD50 [2]: 201 mg/kg
No. of writhings (mean ± S.E.M.) (Swiss ICR albino mice [3]; 30 mg./kg., intraperitoneal, 30 minutes before acetic acid, counted over 20 minutes, control 93): 58.8 ± 10.2
chemical analgesic activity (Swiss ICR albino mice [3]; conclusion in words, compared with dextropropoxyphene): same intensity as dextropropoxyphene

CCC(=O)O[C@](Cc1ccccc1)(c1ccccc1)[C@H](C)CN(C)C [Dextropropoxyphene, dextropropoxyphene, reference compound]
Jumping time (mean ± S.E.M.) (Swiss ICR albino mice [1]): 91 ± 17.17 s
Lethal Dose 50 (LD50) (Swiss ICR mice): 140 mg/kg
